Data from patent US6268395A, “Phorbol derivatives having antivirus activity” (Lead Chemical Co., Ltd., priority 1999, dated 2001).
Where two headings read alike, the source gives them in different places.

Tests used:
HIV = conditions: cited from earlier work
P-388 leukemia = P-388 leukemia in mice; cited from earlier work
HIV-1 = test: Inhibition of HIV-1-induced cytopathic effect (CPE) in MT-4 cells; format: cell-based, HIV-1 (LAV-1) in human MT-4 cells; conditions: MT-4 cells
Method: (§1) In the experiments, MT-4 cells were used. The cells were incubated at 37° C. under 5% CO2 in RPMI-1640 medium (FCS, Flow laboratories, North Ryde, Australia) supplemented with 100 μg/mL of streptomycin (Meiji Seika, Tokyo, Japan), and 100 U/mL of penicillin G (Banyu Pharmaceutical, Tokyo, Japan).
HIV-1 was obtained from culture supernatant of MOLT-4 cells that had been persistently infected with LAV-1.
j) Assay of cytopathic effect(CPE) of HIV-1 in MT-4 cells
(§2) The inhibitory effect of test compounds on HIV-1-induced cytopathogenicity was measured by the method of Harada, Koyanagi & Yamamoto (1985). MT-4 cells were infected for 1 hour with HIV-1 (at TCID50 of 0.001/well) and non-adsorbed virus was removed by washing. Then, the cells were resuspended in RPMI-1640 medium at a concentration of 1.5×10^5 cells/mL. A 200 μL/well of the cell suspension was cultured for 5 days in days in a 96-well culture plate containing various concentrations (12 doses, maximum 1,000 μg/mL and minimum […]) of the test compounds. Control assays were performed in the absence of test compounds with HIV-1-infected and uninfected cultures. On day 5, the IC100 of the test compound required for completely preventing HIV-1-induced CPE(IC) was determined through an optical microscope and the cell growth was examined to give the CC0 that reduces the viability of MT-4 cells.
A variety of phorbol esters and related compounds were tested for their ability to inhibit the replication and infectivity of HIV-1 in MT-4 cells, a human CD4-positive cell line continually infected with HTLV-1, and the results are presented in Table 3.

[1] = Cell growth / viability of MT-4 cells (cytotoxicity); format: cell-based; conditions: human, day 5, read-out: CC0 (concentration that reduces viability of MT-4 cells; minimum cytotoxic concentration)
Method: as §1, §2

protein kinase C (PKC) = format: biochemical, mouse; conditions: for % Activity of PKC: relative to TPA positive control
Method: After addition of 0.55 nM [γ-^32 P] ATP (50×10^3 cpm/nmol), the reaction mixture was mixed and allowed to be kept at 37° C. for 30 minutes. Then the reactions were terminated by the addition of 10 μl of ice-cold stop reagent. Aliquots of 35 μL were transferred to the center of peptide binding discs. After 10 minutes, the discs were washed two times with 75 mM orthophosphoric acid. The activity of ^32 P-labeled samples was counted in 10/mL of a scintillation fluid for 1 minute. […] Blank (in the absence of PKC) and control (in the absence of TPA or tested samples) were also carried out. One unit of PKC was defined as that amount of enzyme, which incorporated 1 nmol of phosphate from ATP into its substrate, peptide, per minute under the assay conditions, described above.

Q: Which anti-HIV activity (HIV) does the source give for CC(=O)O[C@@]12C[C@@H](C)[C@@]3(O)[C@@H](C=C(CO)C[C@]4(O)C(=O)C(C)=C[C@@H]34)[C@@H]1C2(C)C [12-Deoxyphorbol-13-acetate] here?
A: having an anti-HIV activity

Q: Which antileukemic activity (P-388 leukemia) does the source give for C/C=C(\C)C(=O)O[C@@H]1[C@@H](C)[C@@]2(O)[C@@H](C=C(CO)C[C@]3(O)C(=O)C(C)=C[C@@H]23)[C@@H]2C(C)(C)[C@]12OC(=O)CCCCCCCCC [12-O-tigloylphorbol-13-decanoate] here?
A: demonstrated antileukemic activity

Q: Which results are given for CCCCC/C=C\C/C=C\CCCCCCCC(=O)OCC1=C[C@H]2[C@@H]3C(C)(C)[C@]3(OC(C)=O)[C@H](OC(C)=O)[C@@H](C)[C@]2(O)[C@@H]2C=C(C)C(=O)[C@@]2(O)C1 [Compound 13, Phorbol-12,13-diacetate-20-linoleate]?
A: IC100 (HIV-1; Human immunodeficiency virus 1, MT4, 120 h, 5 days, NE: Not effective, read-out: Anti-HIV-1 IC100 (complete prevention of HIV-1-induced CPE)): 7.81 µg/mL; Anti-HIV-1 IC100 (complete prevention of HIV-1-induced CPE) (HIV-1; 5 days, NE: Not effective): 7.8 µg/mL; CPE inhibitory effect (in words) (HIV-1; HIV-1): Enhancement of the anti-HIV activity; r = CC0/IC100 (HIV-1; 7200 min): 8.00; MCC at 120 h [1]: 62.5 µg/mL; % Activity of PKC (protein kinase C (PKC); 10 ng/mL): 0%; % Activity of PKC (protein kinase C (PKC); 2.7 μg/mL): 44%; activation of PKC (in words) (protein kinase C (PKC); concentration not given): without an increase in the activity of PKC
